Experimental data published in ChEMBL document CHEMBL5579832, “Design, synthesis, and biological evaluation of pyrido[2,3-d]pyrimidin-7(8H)-one derivatives as potent USP1 inhibitors” (Eur J Med Chem, 2024).
Active and inactive are the calls of the source. No cut-off for these calls is given here.

Each molecule was assayed against T1, Ubiquitin carboxyl-terminal hydrolase 1/WD repeat-containing protein 48 (Homo sapiens) (UniProt O94782+Q8TAF3). Conditions: NCI-H1299, dose 20-500 nM, time 24.0 hrs.

inhibition | SMILES
Dose-Dependent Effect | COc1cccc(OC)c1-c1ncc2ccc(=O)n(Cc3ccc(-c4nc(C(F)(F)F)cn4C(C)C)cc3)c2n1
Dose-Dependent Effect | COc1ncnc(C2CC2)c1-c1ncc2ccc(=O)n(Cc3ccc(-n4nc(C(F)(F)F)cc4C)cc3)c2n1

The molecules below were run against Ubiquitin carboxyl-terminal hydrolase 1/WD repeat-containing protein 48 (Homo sapiens, UniProt O94782) (assay: Inhibition of USP1-UAF1 complex (unknown origin) using Ub-7-amido-4-methylcoumarin as substrate incubated for 2 hrs by fluorescence based analysis). Conditions: not given.
Type: protein-complex assay

Sequence of Ubiquitin carboxyl-terminal hydrolase 1/WD repeat-containing protein 48 (O94782 whole entry): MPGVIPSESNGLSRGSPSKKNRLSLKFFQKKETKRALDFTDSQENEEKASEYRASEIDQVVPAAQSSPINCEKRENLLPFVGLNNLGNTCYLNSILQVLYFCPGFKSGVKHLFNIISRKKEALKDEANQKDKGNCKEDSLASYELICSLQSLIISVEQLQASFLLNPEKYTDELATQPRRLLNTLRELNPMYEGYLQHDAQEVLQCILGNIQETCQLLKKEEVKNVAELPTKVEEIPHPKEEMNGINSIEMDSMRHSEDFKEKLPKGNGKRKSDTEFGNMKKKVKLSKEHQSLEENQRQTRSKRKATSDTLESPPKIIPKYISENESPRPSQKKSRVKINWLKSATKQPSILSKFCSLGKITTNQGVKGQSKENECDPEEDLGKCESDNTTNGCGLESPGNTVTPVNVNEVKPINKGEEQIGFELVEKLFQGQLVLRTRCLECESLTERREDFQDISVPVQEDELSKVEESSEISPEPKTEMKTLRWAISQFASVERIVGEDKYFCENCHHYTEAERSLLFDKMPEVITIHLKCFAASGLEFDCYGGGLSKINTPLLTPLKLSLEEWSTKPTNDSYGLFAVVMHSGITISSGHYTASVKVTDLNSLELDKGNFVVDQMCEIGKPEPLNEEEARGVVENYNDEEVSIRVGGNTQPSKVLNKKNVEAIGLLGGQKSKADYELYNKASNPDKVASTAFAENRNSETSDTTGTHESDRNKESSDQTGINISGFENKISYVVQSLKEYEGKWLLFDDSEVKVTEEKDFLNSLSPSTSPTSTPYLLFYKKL
Sequence of Ubiquitin carboxyl-terminal hydrolase 1/WD repeat-containing protein 48 (Q8TAF3 whole entry, further chain): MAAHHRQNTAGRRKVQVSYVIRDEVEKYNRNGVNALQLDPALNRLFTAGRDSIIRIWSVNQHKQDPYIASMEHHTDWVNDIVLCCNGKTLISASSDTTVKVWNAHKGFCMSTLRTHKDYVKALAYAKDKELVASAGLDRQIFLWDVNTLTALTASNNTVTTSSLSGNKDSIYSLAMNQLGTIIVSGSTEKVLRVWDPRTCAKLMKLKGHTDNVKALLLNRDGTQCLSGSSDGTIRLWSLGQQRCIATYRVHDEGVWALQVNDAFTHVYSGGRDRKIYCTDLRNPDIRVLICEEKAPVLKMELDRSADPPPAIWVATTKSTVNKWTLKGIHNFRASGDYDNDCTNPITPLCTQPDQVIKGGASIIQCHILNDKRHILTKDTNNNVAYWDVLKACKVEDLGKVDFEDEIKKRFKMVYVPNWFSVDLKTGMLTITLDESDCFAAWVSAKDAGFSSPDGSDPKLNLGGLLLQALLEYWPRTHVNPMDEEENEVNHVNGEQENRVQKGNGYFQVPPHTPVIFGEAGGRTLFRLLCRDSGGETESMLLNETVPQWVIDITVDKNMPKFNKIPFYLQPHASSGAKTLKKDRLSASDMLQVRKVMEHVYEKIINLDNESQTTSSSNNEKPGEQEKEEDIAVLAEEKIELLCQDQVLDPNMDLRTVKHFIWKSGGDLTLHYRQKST

SMILES | IC50
CC(C)n1cc(C(F)(F)F)nc1-c1ccc(Cn2c(=O)ccc3cnc(-c4ccnn4C)nc32)cc1 | > 10000 nM
CC(C)n1cc(C(F)(F)F)nc1-c1ccc(Cn2c(=O)ccc3cnc(-c4cccc5ncsc45)nc32)cc1 | > 10000 nM
CC(C)n1cc(C(F)(F)F)nc1-c1ccc(Cn2c(=O)ccc3cnc(-c4ccn(C)n4)nc32)cc1 | > 10000 nM
CC(C)n1cc(C(F)(F)F)nc1-c1ccc(Cn2c(=O)ccc3cnc(-c4ccccc4OC(F)(F)F)nc32)cc1 | 39.8 nM
Cc1cnn(C(C)C)c1-c1ncc2ccc(=O)n(Cc3ccc(-c4nc(C(F)(F)F)cn4C(C)C)cc3)c2n1 | > 10000 nM
COc1ncnc(C2CC2)c1-c1ncc2ccc(=O)n(Cc3ccc(-c4cccc(C(F)(F)F)n4)cc3)c2n1 | 59.9 nM
COc1ccccc1-c1ncc2ccc(=O)n(Cc3ccc(-c4nc(C(F)(F)F)cn4C(C)C)cc3)c2n1 | > 10000 nM
CC(C)c1ccccc1-c1ncc2ccc(=O)n(Cc3ccc(-c4nc(C(F)(F)F)cn4C(C)C)cc3)c2n1 | 33.9 nM
CC(C)n1cc(C(F)(F)F)nc1-c1ccc(Cn2c(=O)ccc3cnc(-c4ccccc4C(F)(F)F)nc32)cc1 | 195 nM
COc1ncnc(C2CC2)c1-c1ncc2ccc(=O)n(Cc3c(F)cc(-c4nc(C(F)(F)F)cn4C(C)C)cc3F)c2n1 | 246 nM
CC(C)n1cc(C(F)(F)F)nc1-c1ccc(Cn2c(=O)ccc3cnc(-c4c(Cl)cnn4C(C)C)nc32)cc1 | > 10000 nM
Cc1cnn(C)c1-c1ncc2ccc(=O)n(Cc3ccc(-c4nc(C(F)(F)F)cn4C(C)C)cc3)c2n1 | > 10000 nM
CC(C)n1cc(C(F)(F)F)nc1-c1ccc(Cn2c(=O)ccc3cnc(-c4ccccc4Cl)nc32)cc1 | 729 nM
COc1ncnc(C2CC2)c1-c1ncc2ccc(=O)n(C(C)c3ccc(-c4nc(C(F)(F)F)cn4C(C)C)cc3)c2n1 (centres undefined) | 83.9 nM
COc1cccc(F)c1-c1ncc2ccc(=O)n(Cc3ccc(-c4nc(C(F)(F)F)cn4C(C)C)cc3)c2n1 | 23.3 nM
CC(C)n1cc(C(F)(F)F)nc1-c1ccc(Cn2c(=O)ccc3cnc(-c4cccc5cnn(C)c45)nc32)cc1 | > 10000 nM
CC(C)n1cc(C(F)(F)F)nc1-c1ccc(Cn2c(=O)ccc3cnc(-c4c(Cl)cccc4Cl)nc32)cc1 | > 10000 nM

Results, then the molecule that gave them:

IC50 | SMILES
22.8 nM | COc1ncnc(C2CC2)c1-c1ncc2ccc(=O)n(Cc3ccc(-c4nc(C(F)(F)F)cn4C(C)C)c(F)c3)c2n1
319 nM | COc1cc(-c2nc(C(F)(F)F)cn2C(C)C)ccc1Cn1c(=O)ccc2cnc(-c3c(OC)ncnc3C3CC3)nc21
511 nM | Cc1ccccc1-c1ncc2ccc(=O)n(Cc3ccc(-c4nc(C(F)(F)F)cn4C(C)C)cc3)c2n1
> 10000 nM | CC(C)n1cc(C(F)(F)F)nc1-c1ccc(Cn2c(=O)ccc3cnc(-c4c(F)cccc4Cl)nc32)cc1
18.8 nM | COc1cccc(OC)c1-c1ncc2ccc(=O)n(Cc3ccc(-c4nc(C(F)(F)F)cn4C(C)C)cc3)c2n1
11.2 nM | COc1ncnc(C2CC2)c1-c1ncc2ccc(=O)n(Cc3ccc(-c4nc(C(F)(F)F)cn4CC4CC4)cc3)c2n1
> 10000 nM | COc1ncnc(C2CC2)c1-c1ncc2ccc(=O)n(Cc3ccc(-c4ccc(C(F)(F)F)cn4)cc3)c2n1
835 nM | CC(C)n1cc(C(F)(F)F)nc1-c1ccc(Cn2c(=O)ccc3cnc(-c4ccccc4F)nc32)cc1

These molecules were tested on Olaparib-resistant MDA-MB-436 (assay: Inhibition of colony formation in human Olaparib-resistant MDA-MB-436 cell assessed as cell killing at 100 nM measured after 7 days by SRB staining based assay). Conditions: time 7.0 day.
Type: functional

SMILES | inhibition
O=C(c1cc(Cc2n[nH]c(=O)c3ccccc23)ccc1F)N1CCN(C(=O)C2CC2)CC1 | inactive

These molecules were tested against T1, Ubiquitin carboxyl-terminal hydrolase 1/WD repeat-containing protein 48 (Homo sapiens) (assay: Inhibition of USP1-UAF1 complex (unknown origin) using Ub-7-amido-4-methylcoumarin as substrate at 10 uM incubated for 2 hrs by fluorescence based analysis relative to control). Conditions: not given.
Type: protein-complex assay

SMILES | inhibition
COc1ncccc1-c1ncc2ccc(=O)n(Cc3ccc(-c4nc(C(F)(F)F)cn4C(C)C)cc3)c2n1 | 63.9%
COc1ncnc(C2CC2)c1-c1ncc2ccc(=O)n(Cc3ccc(-n4ccnn4)cc3)c2n1 | 54.6%

Results, then the molecule that gave them:

inhibition | SMILES
56.6% | CC(C)n1cc(C(F)(F)F)nc1-c1ccc(Cn2c(=O)ccc3cnc(-c4ccnn4C(C)C)nc32)cc1
71.6% | COc1ncnc(C2CC2)c1-c1ncc2ccc(=O)n(Cc3ccc(-n4cccc4)cc3)c2n1
77.9% | COc1ncnc(C2CC2)c1-c1ncc2ccc(=O)n(Cc3ccc(-c4nc(C(F)(F)F)cn4C(C)C)c(C)c3)c2n1
56.9% | COc1ncnc(C2CC2)c1-c1ncc2ccc(=O)n(Cc3ccc(-n4ccnc4)cc3)c2n1

Each molecule was assayed on MDA-MB-436 (assay: Induction of cell cycle arrest in human MDA-MB-436 cells assessed as increase in cells at S phase at 1 uM incubated for 24 hrs by PI staining based flow cytometry analysis). Conditions: not given.
Type: functional

SMILES | Activity
COc1cccc(OC)c1-c1ncc2ccc(=O)n(Cc3ccc(-c4nc(C(F)(F)F)cn4C(C)C)cc3)c2n1 | Active
COc1ncnc(C2CC2)c1-c1ncc2cnn(Cc3ccc(-c4nc(C(F)(F)F)cn4C(C)C)cc3)c2n1 | Active
COc1ncnc(C2CC2)c1-c1ncc2ccc(=O)n(Cc3ccc(-n4nc(C(F)(F)F)cc4C)cc3)c2n1 | Active

The molecules below were run on NCI-H1299 (assay: Inhibition of colony formation in human NCI-H1299 cells at 0.5 uM measured after 7 days by SRB staining based assay relative to control). Conditions: NCI-H1299, 168 h, time 7 day.
Type: functional

SMILES | inhibition at 0.5 µM
COc1cccc(OC)c1-c1ncc2ccc(=O)n(Cc3ccc(-c4nc(C(F)(F)F)cn4C(C)C)cc3)c2n1 | 70%
COc1ncnc(C2CC2)c1-c1ncc2ccc(=O)n(Cc3ccc(-n4nc(C(F)(F)F)cc4C)cc3)c2n1 | 70%
